PubChem BioAssay (NCI)
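In this assay, cells in 96-well plates receive the compound at five concentrations for 48 hours. Endpoints are linearly interpolated between the surrounding concentrations. TGI marks complete inhibition of growth.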

Columns and labels:
Test in all cases: DTP human tumour cell line panel, 48 h
[1] = system: HOP-62 NSCLC
[2] = system: M14 melanoma
[3] = system: EKVX NSCLC
[4] = system: NCI-H522 lung
[5] = system: HOP-92 NSCLC
[6] = system: SK-MEL-5 melanoma
[7] = system: SN12C renal
[8] = system: HCC-2998 colon
[9] = system: NCI-H460 lung
[10] = system: A549 NSCLC
[11] = system: U251 CNS
[12] = system: SK-MEL-2 melanoma
[13] = system: SR leukemia
[14] = system: RXF 393 renal
[15] = system: T-47D breast
[16] = system: A498 renal
[17] = system: MDA-N
[18] = system: CAKI-1 renal
[19] = system: MDA-MB-435
[20] = system: MCF7 breast

| Structure (SMILES) | TGI [1] | TGI [2] | TGI [3] | TGI [4] | TGI [5] | TGI [6] | TGI [7] | TGI [8] | TGI [9] | TGI [10] | TGI [11] | TGI [12] | TGI [13] | TGI [14] | TGI [15] | TGI [16] | TGI [17] | TGI [18] | TGI [19] | TGI [20] |
| --- | --- | --- | --- | --- | --- | --- | --- | --- | --- | --- | --- | --- | --- | --- | --- | --- | --- | --- | --- | --- |
| CCC(CC)NC1=C(NC(C)=O)C(=O)c2ccccc2C1=O | > 50 µM | > 50 µM | > 50 µM | > 50 µM | > 50 µM | > 50 µM | > 50 µM | > 50 µM | > 50 µM | > 50 µM | > 50 µM | > 50 µM | > 50 µM | > 50 µM |  |  |  |  |  |  |
| COC(=O)[C@@H]1C=C[C@H](OC2OC(COC(C)=O)C(OC(C)=O)C(OC(C)=O)C2OC(C)=O)n2c(=O)n(-c3ccccc3)c(=O)n21 (some centres not stated) | 28.1 µM | 5.77 µM | 11.2 µM | 1.07 µM | 3.59 µM | 7 µM | 7.95 µM | 21.9 µM | 35.8 µM | 30.8 µM | 8.33 µM | 5.05 µM | > 24.9 µM | 4.12 µM | 8.75 µM | 20 µM | 7.41 µM | 2.7 µM | 11.9 µM |  |
| Nn1c(C23CC4CC(CC(C4)C2)C3)n[nH]c1=S | > 100 µM | > 100 µM | > 100 µM | > 100 µM | > 100 µM | > 100 µM | > 100 µM | > 100 µM | > 100 µM | > 100 µM | > 100 µM | > 100 µM | > 100 µM | > 100 µM | > 100 µM | > 100 µM | > 100 µM | > 100 µM | > 100 µM |  |
| O=C1NC(=S)N/C1=C\c1cccs1 | > 100 µM | > 100 µM | > 100 µM | > 100 µM |  | > 100 µM | > 100 µM | > 100 µM |  | > 100 µM | > 100 µM | > 100 µM |  | > 100 µM | > 100 µM |  | > 100 µM | > 100 µM | > 100 µM | > 100 µM |
| CCCCCCNCCc1cnc[nH]1 | > 100 µM | > 100 µM | > 100 µM | > 100 µM | > 100 µM | > 100 µM | > 100 µM | > 100 µM | > 100 µM | > 100 µM | > 100 µM | > 100 µM | > 100 µM | > 100 µM | > 100 µM | > 100 µM |  | > 100 µM | > 100 µM | > 100 µM |
| O=S(Cc1ccccc1)c1nc2ccccc2nc1-c1cccs1 (configuration not stated) | 37.4 µM | 25.4 µM | 60.6 µM | 3.4 µM | 29.8 µM | 23.7 µM | 28.1 µM | 26.1 µM | 45.4 µM | 30.7 µM | 33.5 µM | 24.2 µM |  |  |  |  |  |  |  |  |
| COc1ccc2nc3cc(Cl)ccc3c(Sc3ccc([N+](=O)[O-])cc3C)c2c1 | > 100 µM | > 100 µM | > 100 µM | > 100 µM | > 100 µM | > 100 µM | > 100 µM | > 100 µM | > 100 µM | > 100 µM | > 100 µM | > 100 µM | > 100 µM | > 100 µM |  | > 100 µM |  | > 100 µM |  |  |
| S=C(N/N=C/c1ccccn1)N1CCCCC1 |  | 1.36 µM | 17.4 µM | 25.7 µM | > 100 µM | 1.13 µM | 1.96 µM | > 100 µM | 0.457 µM | > 100 µM | > 43.1 µM | 18.1 µM | 0.217 µM | 3.94 µM |  |  | > 100 µM | > 100 µM | > 100 µM | 50 µM |
| O=C(Nc1cccc(O)c1)C(=O)C1C(=O)NC(=S)NC1=O |  | > 100 µM | > 100 µM | > 100 µM | > 100 µM | > 100 µM | > 100 µM | > 100 µM |  | > 100 µM | > 100 µM |  | > 100 µM | > 100 µM |  | > 100 µM |  | > 100 µM |  |  |
| N#C/C(=C/c1cccc(Oc2ccccc2)c1)c1ccccc1 |  | > 100 µM | > 100 µM | > 100 µM | > 100 µM | > 100 µM | > 100 µM | > 100 µM | > 100 µM | > 100 µM | > 100 µM | > 100 µM | > 100 µM |  |  | > 100 µM |  | > 100 µM |  |  |
| CNC1(c2cc3ccccc3s2)CCCCC1 | > 100 µM | 35.7 µM | 93.8 µM | 29.1 µM | 61.6 µM | 36 µM | > 100 µM | 28.7 µM | 35.4 µM | > 100 µM | 33.8 µM |  | 67.3 µM | 67.1 µM |  | > 100 µM | 39.9 µM | > 100 µM | 36.6 µM | 90.5 µM |
| O=C(NN1C(=O)C(Cl)C1c1ccc(Cl)cc1)c1c(Cl)c(Cl)c(Cl)c(Cl)c1-c1nc2ccccc2[nH]1 (configuration not stated) | > 100 µM | 74.9 µM | 88.7 µM | 39.7 µM | 51.4 µM | > 100 µM | 83.2 µM | 30.9 µM | 46.4 µM | > 100 µM |  | 47.1 µM | > 100 µM | 17.9 µM | 25 µM | 63.6 µM |  | 23.2 µM | 80.5 µM | 34.4 µM |
| NC(=Nc1ccccc1Cl)c1ccccc1N | > 100 µM | > 100 µM | > 100 µM | > 100 µM | 86.5 µM | > 100 µM |  | > 100 µM | > 100 µM | > 100 µM | > 100 µM | > 100 µM | > 100 µM | > 100 µM |  | > 100 µM | > 100 µM | > 100 µM | > 100 µM | > 100 µM |
| CCC1=CCN(c2cc(C)ccn2)OC1c1ccc(OC)cc1 (configuration not stated) | > 100 µM | > 100 µM | > 100 µM | 52.1 µM |  | 30.5 µM | 64.6 µM | 86.8 µM | > 100 µM | > 100 µM | 44.1 µM | 41.4 µM | 68.5 µM | 58.1 µM |  |  |  | > 100 µM |  |  |
